Results published in paper PMC9019904, “AD Informer Set: Chemical tools to facilitate Alzheimer's disease drug discovery” (Alzheimer's & Dementia : Translational Research & Clinical …, 2022).

Assays:
[1] = system: BV2 (mouse microglia) cell line; experiment: pHrodo-myelin phagocytosis/cell viability high content imaging assay: phagocytosis signal; type: cell-based
Experimental: (§1) It is important to note that stressed cells, such as those that are dying, are prone to show an increase in phagocytosis. […] MerTK promotes phagocytosis and thus MerTK inhibition is proposed to lead to inhibition of phagocytosis.[47]
(§2) phagocytosis and cell viability simultaneously. High content imaging is performed with the
(§3) (approximately 22 hours after pHrodo-myelin addition). Three measurements are extracted
(§4) intensity increase (early apoptosis) and decrease (later apoptosis), respectively. These
and 3). […]

[2] = system: HMC3 (human microglia) cell line; experiment: as above; type: cell-based
Experimental: as §1, §2, §3, §4
and 3). […]

[3] = system: BV2 (mouse microglia) cell line; experiment: pHrodo-myelin phagocytosis/cell viability high content imaging assay: viability (cell count, nuclear area, nuclear intensity); conditions: 48 hours treatment
Experimental: (§5) All AD Informer Set compounds were tested in two immortalized microglial cell lines, murine (BV2), and human (HMC3), in a high‐content imaging assay in duplicate by the Chu lab. Experimental details and all data can be found as supporting information files.
(§6) The role of microglia in AD has been well documented and was thus chosen as a cell type in which to profile the AD Informer Set.[43], [44], [45] As an example, neuroinflammation, as detected by the presence of activated complement proteins, interleukins, cytokines, and chemokines in microglia and astrocytes, is increased early in AD and is considered pathogenic due to its chronic nature.[33], [34] Cytotoxic effects can be assessed by considering multiple parameters.
(§7) Microglial viability and phagocytosis studies: The pHrodo-myelin phagocytosis/cell viability assay, modified based on a published method, was run with immortalized BV2 (mouse microglia) and HMC3 (human microglia) cell lines in the Chu lab at IUSM. The 384-well plate high content analysis assay with BV2 and HMC3 microglial cell lines is used to quantify both phagocytosis and cell viability simultaneously. High content imaging is performed with the ArrayScan automatic imaging system and imaging analysis done with the software on the system. After allowing cells to adhere overnight, they are treated with compounds for total 48 hours including final 20 hours seeded with pHrodo-myelin (labeled phagocytosis ligand, purified […]
(§8) (approximately 22 hours after pHrodo-myelin addition). Three measurements are extracted from the assay: 1) phagocytosis signal by mean total phagocytosis spot intensity per cell, 2) total cell counts per well as the main measurement of cell viability, and 3) mean average nuclear intensity per cell as profiling of cell health since apoptotic cells showing nuclear intensity increase (early apoptosis) and decrease (later apoptosis), respectively. These measurements allow for evaluation of compound-induced phagocytosis (1) and cytotoxicity (2 and 3). Assays were carried out at a single concentration (10 μM). Idelalisib (10 μM) and cytochalasin-D (4 μM) were used as positive controls in the assay. All data, which was an average of 2 data points, was normalized to untreated wells and reported as % control, which is included in the Supporting Information both as a raw data file and summarized in the compound/gene-annotation file.

[4] = system: HMC3 (human microglia) cell line; experiment: as above; conditions: 48 hours treatment
Experimental: as §5, §6, §7, §8

[5] = BV2, compound 10 uM, pHrodo-myelin
[6] = HMC3, compound 10 uM, pHrodo-myelin
[7] = BV2 cells, 10 uM compound, 48 hours treatment, pHrodo-myelin final 20 hours
[8] = HMC3 cells, 10 uM compound, 48 hours treatment, pHrodo-myelin final 20 hours

C[C@H](NC(=O)c1sccc1OCc1ccc(Cl)cc1)c1ccccc1 [UNC10302704A]
4. Phagocytosis (% control) [1, 5]: 123.4 % control
4. Phagocytosis (% control) [2, 6]: 66.4 % control
1. Cell count (% control) ([3]; BV2, compound 10 uM): 95.5 % control
2. Nuclear Area (% Control) ([3]; BV2, compound 10 uM): 101.0 % Control
3. Nuclear DNA Intensity (% control) ([3]; BV2, compound 10 uM): 97.2 % control
1. Cell count (% control) ([4]; HMC3, compound 10 uM): 112.7 % control
2. Nuclear Area (% Control) ([4]; HMC3, compound 10 uM): 95.6 % Control
3. Nuclear DNA Intensity (% control) ([4]; HMC3, compound 10 uM): 89.7 % control

CC(C)c1ccc(/C=N/NC(=O)c2ccc(O)cc2)cc1 [UNC10302878A]
4. Phagocytosis (% control) [1, 7]: 129.4 % control
4. Phagocytosis (% control) [2, 8]: 80.2 % control
1. Cell count (% control) ([3]; BV2 cells, 10 uM compound): 104.0 % control
2. Nuclear Area (% Control) ([3]; BV2 cells, 10 uM compound): 103.1 % Control
3. Nuclear DNA Intensity (% control) ([3]; BV2 cells, 10 uM compound): 108.0 % control
1. Cell count (% control) ([4]; HMC3 cells, 10 uM compound): 137.1 % control
2. Nuclear Area (% Control) ([4]; HMC3 cells, 10 uM compound): 101.0 % Control
3. Nuclear DNA Intensity (% control) ([4]; HMC3 cells, 10 uM compound): 96.0 % control

C[C@]12C=CC(=O)C=C1CC[C@@H]1[C@@H]2[C@@H](O)C[C@@]2(C)[C@H]1CC[C@]2(O)C(=O)CO [UNC10240227A]
4. Phagocytosis (% control) [1, 7]: 126.6 % control
4. Phagocytosis (% control) [2, 8]: 79.4 % control
1. Cell count (% control) ([3]; BV2 cells, 10 uM compound): 107.8 % control
2. Nuclear Area (% Control) ([3]; BV2 cells, 10 uM compound): 102.9 % Control
3. Nuclear DNA Intensity (% control) ([3]; BV2 cells, 10 uM compound): 105.7 % control
1. Cell count (% control) ([4]; HMC3 cells, 10 uM compound): 161.9 % control
2. Nuclear Area (% Control) ([4]; HMC3 cells, 10 uM compound): 102.8 % Control
3. Nuclear DNA Intensity (% control) ([4]; HMC3 cells, 10 uM compound): 82.5 % control

O=c1ccc2c(OCCCCOc3ccccc3)c3ccoc3cc2o1 [UNC10302901A]
4. Phagocytosis (% control) [1, 7]: 188.1 % control
4. Phagocytosis (% control) [2, 8]: 89.9 % control
1. Cell count (% control) ([3]; BV2 cells, 10 uM compound): 138.9 % control
2. Nuclear Area (% Control) ([3]; BV2 cells, 10 uM compound): 105.4 % Control
3. Nuclear DNA Intensity (% control) ([3]; BV2 cells, 10 uM compound): 102.9 % control
1. Cell count (% control) ([4]; HMC3 cells, 10 uM compound): 143.5 % control
2. Nuclear Area (% Control) ([4]; HMC3 cells, 10 uM compound): 101.6 % Control
3. Nuclear DNA Intensity (% control) ([4]; HMC3 cells, 10 uM compound): 95.5 % control

CC(=O)N1CCN(c2ccc(OC[C@H]3CO[C@](Cn4ccnc4)(c4ccc(Cl)cc4Cl)O3)cc2)CC1 [UNC10100724A]
4. Phagocytosis (% control) [1, 7]: 280.0 % control
4. Phagocytosis (% control) [2, 8]: 144.4 % control
1. Cell count (% control) ([3]; BV2 cells, 10 uM compound): 129.7 % control
2. Nuclear Area (% Control) ([3]; BV2 cells, 10 uM compound): 103.8 % Control
3. Nuclear DNA Intensity (% control) ([3]; BV2 cells, 10 uM compound): 104.7 % control
1. Cell count (% control) ([4]; HMC3 cells, 10 uM compound): 125.5 % control
2. Nuclear Area (% Control) ([4]; HMC3 cells, 10 uM compound): 96.3 % Control
3. Nuclear DNA Intensity (% control) ([4]; HMC3 cells, 10 uM compound): 100.1 % control

COc1cc(N2CCC(N3CCN(C)CC3)CC2)ccc1Nc1ncc(Cl)c(Nc2ccccc2P(C)(C)=O)n1 [UNC10244797A]
4. Phagocytosis (% control) [1, 5]: 236.8 % control
4. Phagocytosis (% control) [2, 6]: 99.4 % control
1. Cell count (% control) ([3]; BV2, compound 10 uM): 44.4 % control
2. Nuclear Area (% Control) ([3]; BV2, compound 10 uM): 109.2 % Control
3. Nuclear DNA Intensity (% control) ([3]; BV2, compound 10 uM): 111.1 % control
1. Cell count (% control) ([4]; HMC3, compound 10 uM): 103.9 % control
2. Nuclear Area (% Control) ([4]; HMC3, compound 10 uM): 120.2 % Control
3. Nuclear DNA Intensity (% control) ([4]; HMC3, compound 10 uM): 97.2 % control

CC(C)(C(=O)O)c1ccc(C(O)CCCN2CCC(C(O)(c3ccccc3)c3ccccc3)CC2)cc1.Cl (centres unmarked) [UNC10100548A]
4. Phagocytosis (% control) [1, 7]: 106.0 % control
4. Phagocytosis (% control) [2, 8]: 96.5 % control
1. Cell count (% control) ([3]; BV2 cells, 10 uM compound): 104.5 % control
2. Nuclear Area (% Control) ([3]; BV2 cells, 10 uM compound): 103.6 % Control
3. Nuclear DNA Intensity (% control) ([3]; BV2 cells, 10 uM compound): 104.0 % control
1. Cell count (% control) ([4]; HMC3 cells, 10 uM compound): 137.5 % control
2. Nuclear Area (% Control) ([4]; HMC3 cells, 10 uM compound): 98.8 % Control
3. Nuclear DNA Intensity (% control) ([4]; HMC3 cells, 10 uM compound): 98.9 % control

Cc1cc(Nc2ncc(Cl)c(Nc3ccccc3S(=O)(=O)C(C)C)n2)c(OC(C)C)cc1C1CCNCC1 [UNC10244729A]
4. Phagocytosis (% control) [1, 7]: 0.00122 % control
4. Phagocytosis (% control) [2, 8]: 0.00248 % control
1. Cell count (% control) ([3]; BV2 cells, 10 uM compound): 19.2 % control
2. Nuclear Area (% Control) ([3]; BV2 cells, 10 uM compound): 92.5 % Control
3. Nuclear DNA Intensity (% control) ([3]; BV2 cells, 10 uM compound): 49.1 % control
1. Cell count (% control) ([4]; HMC3 cells, 10 uM compound): 28.7 % control
2. Nuclear Area (% Control) ([4]; HMC3 cells, 10 uM compound): 60.3 % Control
3. Nuclear DNA Intensity (% control) ([4]; HMC3 cells, 10 uM compound): 155.5 % control

O=C(Nc1ccc([N+](=O)[O-])cc1Cl)c1cc(Cl)ccc1O [UNC10302856A]
4. Phagocytosis (% control) [1, 7]: 133.2 % control
4. Phagocytosis (% control) [2, 8]: 50.1 % control
1. Cell count (% control) ([3]; BV2 cells, 10 uM compound): 132.8 % control
2. Nuclear Area (% Control) ([3]; BV2 cells, 10 uM compound): 104.4 % Control
3. Nuclear DNA Intensity (% control) ([3]; BV2 cells, 10 uM compound): 103.0 % control
1. Cell count (% control) ([4]; HMC3 cells, 10 uM compound): 150.0 % control
2. Nuclear Area (% Control) ([4]; HMC3 cells, 10 uM compound): 101.6 % Control
3. Nuclear DNA Intensity (% control) ([4]; HMC3 cells, 10 uM compound): 94.0 % control

O=c1ccc2c(OCCCCc3ccccc3)c3ccoc3cc2o1 [UNC10100197A]
4. Phagocytosis (% control) [1, 5]: 195.3 % control
4. Phagocytosis (% control) [2, 6]: 60.7 % control
1. Cell count (% control) ([3]; BV2, compound 10 uM): 106.2 % control
2. Nuclear Area (% Control) ([3]; BV2, compound 10 uM): 106.9 % Control
3. Nuclear DNA Intensity (% control) ([3]; BV2, compound 10 uM): 106.7 % control
1. Cell count (% control) ([4]; HMC3, compound 10 uM): 124.6 % control
2. Nuclear Area (% Control) ([4]; HMC3, compound 10 uM): 99.9 % Control
3. Nuclear DNA Intensity (% control) ([4]; HMC3, compound 10 uM): 93.8 % control

NCCCC[C@H](N[C@@H](CCc1ccccc1)C(=O)O)C(=O)N1CCC[C@H]1C(=O)O.O.O [UNC10302835A]
4. Phagocytosis (% control) [1, 5]: 121.2 % control
4. Phagocytosis (% control) [2, 6]: 70.9 % control
1. Cell count (% control) ([3]; BV2, compound 10 uM): 119.8 % control
2. Nuclear Area (% Control) ([3]; BV2, compound 10 uM): 103.4 % Control
3. Nuclear DNA Intensity (% control) ([3]; BV2, compound 10 uM): 99.2 % control
1. Cell count (% control) ([4]; HMC3, compound 10 uM): 155.8 % control
2. Nuclear Area (% Control) ([4]; HMC3, compound 10 uM): 99.6 % Control
3. Nuclear DNA Intensity (% control) ([4]; HMC3, compound 10 uM): 95.8 % control

c1cn2cc(-c3ccc4cn[nH]c4c3)nc(Nc3ccc(N4CCOCC4)cc3)c2n1 [UNC10302678A]
4. Phagocytosis (% control) [1, 7]: 0.6 % control
4. Phagocytosis (% control) [2, 8]: 43.6 % control
1. Cell count (% control) ([3]; BV2 cells, 10 uM compound): 22.1 % control
2. Nuclear Area (% Control) ([3]; BV2 cells, 10 uM compound): 102.9 % Control
3. Nuclear DNA Intensity (% control) ([3]; BV2 cells, 10 uM compound): 164.6 % control
1. Cell count (% control) ([4]; HMC3 cells, 10 uM compound): 74.7 % control
2. Nuclear Area (% Control) ([4]; HMC3 cells, 10 uM compound): 98.9 % Control
3. Nuclear DNA Intensity (% control) ([4]; HMC3 cells, 10 uM compound): 212.8 % control

CN(C)CC1CCOC1(c1ccccc1)c1ccccc1.Cl (centres unmarked) [UNC10303096A]
4. Phagocytosis (% control) [1, 7]: 256.6 % control
4. Phagocytosis (% control) [2, 8]: 111.9 % control
1. Cell count (% control) ([3]; BV2 cells, 10 uM compound): 103.1 % control
2. Nuclear Area (% Control) ([3]; BV2 cells, 10 uM compound): 105.3 % Control
3. Nuclear DNA Intensity (% control) ([3]; BV2 cells, 10 uM compound): 104.2 % control
1. Cell count (% control) ([4]; HMC3 cells, 10 uM compound): 129.8 % control
2. Nuclear Area (% Control) ([4]; HMC3 cells, 10 uM compound): 100.5 % Control
3. Nuclear DNA Intensity (% control) ([4]; HMC3 cells, 10 uM compound): 94.9 % control
